The values that follow come from patent US11180504B2 (ORCHID PHARMA LTD., priority 2016, dated 2021).

Converted amounts (≈) assume the structure as drawn. Bounds are passed on as bounds.

In assay [1] the test system is carbapenemase producing K. pneumoniae. Description: MIC by broth micro-dilution (CLSI), carbapenemase producing K. pneumoniae. Type of assay: cell-based, Klebsiella pneumoniae. The following applies: Klebsiella pneumoniae, ATCCBAA1705, KPC-2 K. pneumoniae ATCC BAA-1705; read-out: MIC.
For assay [2], the system named is carbapenem sensitive Pseudomonas aeruginosa. Description: MIC by broth micro-dilution (CLSI), carbapenem sensitive P. aeruginosa. Type of assay: cell-based. The following applies: Pseudomonas aeruginosa, ATCC27853, Meropenem susceptible P. aeruginosa ATCC27853; read-out: MIC. In general terms: In broth dilution the organism is exposed to a series of concentrations in liquid medium.

Assay [3] has as its system methicillin-sensitive Staphylococcus aureus. Description: MIC by broth micro-dilution (CLSI), methicillin-sensitive S. aureus. Type of assay: cell-based. The settings on record: Staphylococcus aureus, ATCC 29213 / MSSA, MSSA S. aureus ATCC29213; read-out: MIC.
Assay [4] deals with extended spectrum β lactamase (ESBL) SHV18 producing Klebsiella pneumoniae. Description: MIC by broth micro-dilution (CLSI), ESBL SHV18 producing K. pneumoniae. The settings on record: Klebsiella pneumoniae, ATCC700603, 22 h, ESBL +ve (SHV-18) K. pneumoniae ATCC700603; read-out: MIC. Type of assay: cell-based.
The subject of assay [5] is carbapenem sensitive Escherichia coli. Description: MIC by broth micro-dilution (CLSI), carbapenem sensitive E. coli. The settings on record: Escherichia coli, ATCC25922, ESBL −ve E. coli ATCC25922; read-out: MIC. Type of assay: cell-based.

For `C[C@@H](NS(C)(=O)=O)[C@H]1C(=O)N2C(C(=O)O)=C(S[C@@H]3CN[C@H](C(=O)N4CCC(N)C4)C3)[C@H](C)[C@H]12` (stereo in doubt) [Example 362, (4R,5S,6S)-3-((3S,5S)-5-((R)-3-aminopyrrolidine-1-carbonyl)pyrrolidin-3-ylthio)-4-methyl-6-((R)-1-(methylsulfonamido)ethyl)-7-oxo-1-azabicyclo[3.2.0]hept-2-ene-2-carboxylic acid], the MIC in assay [1] came to 4 µg/mL (≈ 7.97 µM); in assay [2] it was 4 µg/mL (≈ 7.97 µM); in assay [3], 8 µg/mL (≈ 15.9 µM); in assay [4], 4 µg/mL (≈ 7.97 µM); in assay [5], 0.25 µg/mL (≈ 0.498 µM).

For `COCc1cn([C@H](C)[C@H]2C(=O)N3C(C(=O)O)=C(S[C@@H]4CN[C@H](C(=O)N5CC[C@@H](N)C5)C4)[C@H](C)[C@H]23)nn1` [Example 232], the minimal inhibitory concentration (MIC) in assay [1] was 8 µg/mL (≈ 15.4 µM); in assay [2] it was > 128 µg/mL; in assay [3] it was 2 µg/mL (≈ 3.85 µM); in assay [4] it was 8 µg/mL (≈ 15.4 µM); in assay [5], 2 µg/mL (≈ 3.85 µM).

On to `C[C@@H](NC(=O)C(F)F)[C@H]1C(=O)N2C(C(=O)O)=C(S[C@@H]3CN[C@H](C(=O)N4CC[C@H](N(C)C)C4)C3)[C@H](C)[C@H]12` [Example 107], for which the minimum inhibitory concentration (MIC) was 4 µg/mL (≈ 7.55 µM) in assay [1]; 16 µg/mL (≈ 30.2 µM) in assay [2]; 4 µg/mL (≈ 7.55 µM) in assay [3]; 4 µg/mL (≈ 7.55 µM) in assay [4]; 1 µg/mL (≈ 1.89 µM) in assay [5].

As for `C[C@@H](N)C(=O)N[C@H](C)[C@H]1C(=O)N2C(C(=O)O)=C(S[C@@H]3CN[C@H](C(=O)N(C)C)C3)[C@H](C)[C@H]12` [Example 59], the MIC in assay [1] was > 128 µg/mL; in assay [2] it was 32 µg/mL (≈ 70.6 µM); in assay [3], 32 µg/mL (≈ 70.6 µM); in assay [4] it was 16 µg/mL (≈ 35.3 µM); in assay [5] it was 2 µg/mL (≈ 4.41 µM).

In the case of `C[C@@H](NS(=O)(=O)CCN)[C@H]1C(=O)N2C(C(=O)O)=C(S[C@@H]3CN[C@H](C(=O)N(C)C)C3)[C@H](C)[C@H]12` [Example 136], the MIC in assay [1] was 16 µg/mL (≈ 32.7 µM); in assay [2], 32 µg/mL (≈ 65.4 µM); in assay [3] it was > 128 µg/mL; in assay [4] it was 16 µg/mL (≈ 32.7 µM); in assay [5] it was 4 µg/mL (≈ 8.17 µM).

For the molecule `C[C@@H](NC(=O)C(F)F)[C@H]1C(=O)N2C(C(=O)O)=C(S[C@@H]3CN[C@H](C(=O)NCCC(=O)NOCc4ccccc4)C3)[C@H](C)[C@H]12` [Example 111], the minimum inhibitory concentration (MIC) in assay [1] is 16 µg/mL (≈ 26.2 µM); in assay [2], > 128 µg/mL; in assay [3], 4 µg/mL (≈ 6.56 µM); in assay [4], 16 µg/mL (≈ 26.2 µM); in assay [5] it was 1 µg/mL (≈ 1.64 µM).

For `CNCc1cn([C@H](C)[C@H]2C(=O)N3C(C(=O)O)=C(SC4CN[C@H](C(=O)N(C)C)C4)[C@H](C)[C@H]23)nn1` (some centres unmarked) [Example 208], the minimum inhibitory concentration (MIC) was 8 µg/mL (≈ 16.8 µM) in assay [1]; > 128 µg/mL in assay [2]; 64 µg/mL (≈ 134 µM) in assay [3]; 8 µg/mL (≈ 16.8 µM) in assay [4]; 4 µg/mL (≈ 8.38 µM) in assay [5].

On to `C[C@@H](NS(=O)(=O)C(F)(F)F)[C@H]1C(=O)N2C(C(=O)O)=C(S[C@@H]3CN[C@H](C(=O)N4CCC(O)CC4)C3)[C@H](C)[C@H]12` [Example 30], for which the MIC in assay [1] is 8 µg/mL (≈ 14 µM); in assay [2] it was 128 µg/mL (≈ 224 µM); in assay [3], 2 µg/mL (≈ 3.51 µM); in assay [4] it was 8 µg/mL (≈ 14 µM); in assay [5], 1 µg/mL (≈ 1.75 µM).

For `C[C@@H](NS(=O)(=O)C(F)(F)F)[C@H]1C(=O)N2C(C(=O)O)=C(S[C@@H]3CN[C@H](C(=O)N4CCN(C)CC4)C3)[C@H](C)[C@H]12` [Example 25], the minimum inhibitory concentration (MIC) in assay [1] turned out to be 8 µg/mL (≈ 14 µM); in assay [2] it was 128 µg/mL (≈ 225 µM); in assay [3], 4 µg/mL (≈ 7.02 µM); in assay [4], 8 µg/mL (≈ 14 µM); in assay [5] it was 1 µg/mL (≈ 1.76 µM).

For the molecule `C[C@@H](NC(=O)CN(C)C=N)[C@H]1C(=O)N2C(C(=O)O)=C(S[C@@H]3CN[C@H](C(=O)N4CC[C@@H](N)C4)C3)[C@H](C)[C@H]12` [Example 229], the MIC in assay [1] was 64 µg/mL (≈ 123 µM); in assay [2] it was 32 µg/mL (≈ 61.3 µM); in assay [3], 128 µg/mL (≈ 245 µM); in assay [4] it was 64 µg/mL (≈ 123 µM); in assay [5] it was 16 µg/mL (≈ 30.7 µM).

For the molecule `CNCC(=O)NO[C@H]1CCN(C(=O)[C@@H]2C[C@H](SC3=C(C(=O)O)N4C(=O)[C@H]([C@@H](C)NC(=O)C(F)F)[C@H]4[C@H]3C)CN2)C1` [Example 151], the MIC in assay [1] turned out to be 8 µg/mL (≈ 13.6 µM); in assay [2], 32 µg/mL (≈ 54.4 µM); in assay [3], 4 µg/mL (≈ 6.8 µM); in assay [4], 16 µg/mL (≈ 27.2 µM); in assay [5] it was 2 µg/mL (≈ 3.4 µM).

In the case of `C[C@@H](NC(=O)[C@@H]1CCCN1)[C@H]1C(=O)N2C(C(=O)O)=C(S[C@@H]3CN[C@H](C(=O)N4CC[C@@H](N)C4)C3)[C@H](C)[C@H]12` [Example 205], the MIC in assay [1] came out at 4 µg/mL (≈ 7.68 µM); in assay [2], 8 µg/mL (≈ 15.4 µM); in assay [3] it was 32 µg/mL (≈ 61.5 µM); in assay [4], 2 µg/mL (≈ 3.84 µM); in assay [5] it was 1 µg/mL (≈ 1.92 µM).

As for `C[C@@H](NC(=O)C(F)F)[C@H]1C(=O)N2C(C(=O)O)=C(S[C@@H]3CN[C@H](C(=O)N4C[C@@H](N)C[C@H]4CN)C3)[C@H](C)[C@H]12` [Example 183], the minimal inhibitory concentration (MIC) was 16 µg/mL (≈ 30.2 µM) in assay [1]; 64 µg/mL (≈ 121 µM) in assay [2]; 8 µg/mL (≈ 15.1 µM) in assay [3]; 32 µg/mL (≈ 60.3 µM) in assay [4]; 2 µg/mL (≈ 3.77 µM) in assay [5].

Turning to `C[C@@H](NC(=O)C(F)F)[C@H]1C(=O)N2C(C(=O)O)=C(S[C@@H]3CN[C@H](C(=O)N4CC[C@H](NC(=O)CC#N)C4)C3)[C@H](C)[C@H]12` [Example 119], the MIC in assay [1] turned out to be 8 µg/mL (≈ 14.1 µM); in assay [2] it was 16 µg/mL (≈ 28.1 µM); in assay [3], 2 µg/mL (≈ 3.52 µM); in assay [4] it was 1 µg/mL (≈ 1.76 µM); in assay [5] it was 0.5 µg/mL (≈ 0.879 µM).

As to `C[C@@H](NC(=O)C(F)F)[C@H]1C(=O)N2C(C(=O)O)=C(S[C@@H]3CN[C@H](C(=O)N4CC[C@H](NCC#N)C4)C3)[C@H](C)[C@H]12` [Example 175], the MIC in assay [1] was determined as 4 µg/mL (≈ 7.4 µM); in assay [2], 16 µg/mL (≈ 29.6 µM); in assay [3], 2 µg/mL (≈ 3.7 µM); in assay [4] it was 2 µg/mL (≈ 3.7 µM); in assay [5], 1 µg/mL (≈ 1.85 µM).

Take `C[C@@H](NC(=O)C(F)F)[C@H]1C(=O)N2C(C(=O)O)=C(S[C@@H]3CN[C@H](C(=O)N4CCS(=O)(=O)CC4)C3)[C@H](C)[C@H]12` [Example 49]: the minimum inhibitory concentration (MIC) in assay [1] is > 128 µg/mL; in assay [2], > 128 µg/mL; in assay [3], 2 µg/mL (≈ 3.63 µM); in assay [4] it was 2 µg/mL (≈ 3.63 µM); in assay [5], 1 µg/mL (≈ 1.82 µM).

`C[C@@H](NC(=O)C(F)F)[C@H]1C(=O)N2C(C(=O)O)=C(S[C@@H]3CN[C@H](C(=O)N(C)[C@@H]4CN[C@H](C(=O)N(C)C)C4)C3)[C@H](C)[C@H]12` [Example 172]: the minimal inhibitory concentration (MIC) came out at 8 µg/mL (≈ 13.6 µM) in assay [1]; 64 µg/mL (≈ 109 µM) in assay [2]; 4 µg/mL (≈ 6.82 µM) in assay [3]; 8 µg/mL (≈ 13.6 µM) in assay [4]; 1 µg/mL (≈ 1.7 µM) in assay [5].

With `C[C@@H](NC(=O)C(F)F)[C@H]1C(=O)N2C(C(=O)O)=C(S[C@@H]3CN[C@H](C(=O)N4CC[C@H](NS(=O)(=O)N(C)C)C4)C3)[C@H](C)[C@H]12` [Example 117], the minimal inhibitory concentration (MIC) is 4 µg/mL (≈ 6.57 µM) in assay [1]; > 128 µg/mL in assay [2]; 2 µg/mL (≈ 3.29 µM) in assay [3]; 2 µg/mL (≈ 3.29 µM) in assay [4]; 0.5 µg/mL (≈ 0.821 µM) in assay [5].

In the case of `C[C@@H](NC(=O)C(F)F)[C@H]1C(=O)N2C(C(=O)O)=C(S[C@@H]3CN[C@H](C(=O)N4CC[C@H](NC(=O)C(F)(F)CN)C4)C3)[C@H](C)[C@H]12` [Example 147], the MIC in assay [1] is 4 to 8 µg/mL (≈ 6.57 to 13.1 µM); in assay [2], 64 to 128 µg/mL (≈ 105 to 210 µM); in assay [3], 2 µg/mL (≈ 3.29 µM); in assay [4], 2 µg/mL (≈ 3.29 µM); in assay [5], 1 µg/mL (≈ 1.64 µM).

The term MIC denotes the least concentration at which growth counts as inhibited.
